Our source for the IC50 values is patent US20230097700A1, “AZETIDINE SULFONAMIDE COMPOUND” (DAIICHI SANKYO COMPANY, LIMITED, priority 2019, published 2023).

pIC50: −log10 of the molar value. Where a name gives a salt, the structure may show the parent alone.

In the assay the test system is activated T cells (CD4+ T cells derived from the mouse spleen). The assay can be described thus: Incorporation of 3H-thymidine into activated T cells. The conditions noted are these: 3H-thymidine incorporation, mouse spleen CD4+ T cells activated with Dynabeads Mouse T-Activator CD3/CD28. In kind it is cell-based, mouse (C57BL/6J). The method, then:
Effect of a test substance on incorporation of ^3H-thymidine was evaluated using T cells derived from the mouse spleen. The spleen was excised out from a C57BL/6J mouse euthanized, cut into pieces, ground on a cell strainer (40 μm mesh) and centrifuged to collect spleen cells. CD4+ T cells were isolated from the spleen cells by use of EasySep Mouse CD4+ T cell isolation kit (STEMCELL Technologies). CD4+ T cells were seeded to a 96-well round-bottom plate. Test substance dissolved in DMSO (dimethyl sulfoxide) or vehicle (DMSO) was added to culture medium and Dynabeads Mouse T-Activator CD3/CD28 (Thermo Fisher Scientific Inc.) was added. Culture was carried out at 37° C. in 5% CO2. After culture was carried out for 24 hours, ^3H-thymidine (PerkinElmer) diluted with the culture medium was added to individual wells. Culture was further carried out overnight at 37° C. in 5% CO2. In order to measure ^3H-thymidine incorporated in nuclei of the cells, the cells were collected on a filter plate UniFilter-96 GF/B (PerkinElmer) by use of a FilterMate Universal Harvester (PerkinElmer). After the filter plate was placed in a dryer and allowed to stand still for 2 hours or more, scintillation cocktail MicroScint-O (PerkinElmer) was added and radioactivity was measured by TopCount NXT (PerkinElmer). With the radioactivity of a group not containing a test substance being specified as 100% and the radioactivity of a group not activated being specified as 0%, relative radioactivity values of individual wells to which the test substance was added (proliferation rate, % of vehicle) were calculated. The values of “% of vehicle” were entered in analysis software Prism (Version 4.03, GraphPad Software). “Nonlinear regression Log (inhibitor) vs reaction variable tilt” was selected and sigmoid type-fitting (Bottom=0, Top=100) was carried out to calculate 50% inhibition concentration (IC50). The compound of the present invention suppresses ^3H-thymidine incorporation in activated T cells.
In general, pIC50 refers to −log10 of the IC50, conventionally taken in molar units. Low values mean a high IC50, high ones a low IC50. In turn, `N[C@@H](Cc1cccc(S(=O)(=O)N2CC(Oc3ccc(-c4ccccc4)cc3)(c3ccccc3)C2)c1)C(=O)O` [Example 2, (2S)-2-Amino-3-(3-{3-[([1,1′-biphenyl]-4-yl)oxy]-3-phenylazetidin-1-sulfonyl}phenyl)propanoic acid] showed a pIC50 of 7.92.
As for `N[C@@H](Cc1cccc(S(=O)(=O)N2CC(Oc3cccc(-c4ccccc4)c3)(c3ccccc3)C2)c1)C(=O)O` [Example 3, (2S)-2-Amino-3-(3-{3-[([1,1′-biphenyl]-3-yl)oxy]-3-phenylazetidin-1-sulfonyl)phenyl)propanoic acid], the figure is 7.46; as for `CC(=O)c1ccc(OC2(c3ccc(F)cc3)CN(S(=O)(=O)c3cccc(C[C@H](N)C(=O)O)c3)C2)cc1F` [Example 4, (2S)-3-{3-[3-(4-Acetyl-3-fluorophenoxy)-3-(4-fluorophenyl)azetidine-1-sulfonyl]phenyl}-2-aminopropanoic acid monohydrochloride], 7.92.
Turning to `CC(=O)c1cc(OC2(c3ccc(F)cc3)CN(S(=O)(=O)c3cccc(C[C@H](N)C(=O)O)c3)C2)ccc1F` [Example 5, (2S)-3-{3-[3-(3-Acetyl-4-fluorophenoxy)-3-(4-fluorophenyl)azetidine-1-sulfonyl]phenyl}-2-aminopropanoic acid monohydrochloride], the pIC50 is 7.52.
Consider `N[C@@H](Cc1cccc(S(=O)(=O)N2CC(Oc3ccc4nccnc4c3)(c3ccccc3)C2)c1)C(=O)O` [Example 6, (2S)-2-Amino-3-(3-{3-phenyl-3-[(quinoxalin-6-yl)oxy]azetidin-1-sulfonyl}phenyl)propanoic acid monohydrochloride], for which the pIC50 is 8.18.
`N[C@@H](Cc1cccc(S(=O)(=O)N2CC(Oc3ccc4c(c3)OCCO4)(c3ccccc3)C2)c1)C(=O)O` [Example 7, (2S)-2-Amino-3-(3-{3-[(2,3-dihydro-1,4-benzodioxin-6-yl)oxy]-3-phenylazetidin-1-sulfonyl}phenyl)propanoic acid monohydrochloride]: the pIC50 is 7.80.
In the case of `N[C@@H](Cc1cccc(S(=O)(=O)N2CC(Oc3ccc4c(c3)CCNC4=O)(c3ccc(F)cc3)C2)c1)C(=O)O` [Example 8, (2S)-2-Amino-3-(3-{3-(4-fluorophenyl)-3-[(1-oxo-1,2,3,4-tetrahydroisoquinolin-6-yl)oxy]azetidin-1-sulfonyl}phenyl)propanoic acid monohydrochloride], the pIC50 is 7.89.
Take `CC(=O)c1ccc(OC2(c3ccc(Cl)cc3)CN(S(=O)(=O)c3cccc(C[C@H](N)C(=O)O)c3)C2)cc1` [Example 9, (2S)-3-{3-[3-(4-Acetylphenoxy)-3-(4-chlorophenyl)azetidin-1yl]sulfonylphenyl}-2-aminopropanoic acid monohydrochloride]: the pIC50 was 8.12.
As for `N[C@@H](Cc1cccc(S(=O)(=O)N2CC(Oc3ccc4cn[nH]c4c3)(c3ccccc3)C2)c1)C(=O)O` [Example 10, (2S)-2-Amino-3-(3-{3-[(1H-indazol-6-yl)oxy]-3-phenylazetidine-1-sulfonyl}phenyl)propanoic acid monohydrochloride], the pIC50 is 8.00.
With `CC(C)NC(=O)c1ccc(OC2(c3ccccc3)CN(S(=O)(=O)c3cccc(C[C@H](N)C(=O)O)c3)C2)cc1` [Example 11, (2S)-2-Amino-3-[3-(3-phenyl-3-{4-[(propan-2-yl)carbamoyl]phenoxy}azetidin-1-sulfonyl)phenyl]propanoic acid monoformate], the pIC50 is 7.59.
For the molecule `N[C@@H](Cc1cccc(S(=O)(=O)N2CC(Oc3ccc(OC(F)F)cc3)(c3ccccc3)C2)c1)C(=O)O` [Example 12, (2S)-2-Amino-3-(3-{3-[4-(difluoromethoxy)phenoxy]-3-phenylazetidin-1-sulfonyl}phenyl)propanoic acid monoformate], the pIC50 was 7.68.
Then `Cc1ccc(C2(Oc3ccc(C#N)cc3)CN(S(=O)(=O)c3cccc(C[C@H](N)C(=O)O)c3)C2)cc1` [Example 13, (2S)-2-Amino-3-{3-[3-(4-cyanophenoxy)-3-(4-methylphenyl)azetidine-1-sulfonyl]phenyl}propanoic acid monoformate], with 8.04.
In turn, `CC(=O)c1ccc(OC2(c3ccc(C)cc3)CN(S(=O)(=O)c3cccc(C[C@H](N)C(=O)O)c3)C2)cc1` [Example 14, (2S)-3-{3-[3-(4-Acetylphenoxy)-3-(4-methylphenyl)azetidine-1-sulfonyl]phenyl}-2-aminopropanoic acid monoformate] had a pIC50 of 8.11.
As for `N[C@@H](Cc1cccc(S(=O)(=O)N2CC(Oc3cccc(F)c3)(c3ccc(F)cc3)C2)c1)C(=O)O` [Example 15, (2S)-Amino-3-(3-{[3-(3-fluorophenoxy)-3-(4-fluorophenyl)azetidin-1-yl]sulfonyl}phenyl)propanoic acid], the figure is 7.85.
As for `Cc1ccc(OC2(c3ccccc3)CN(S(=O)(=O)c3cccc(C[C@H](N)C(=O)O)c3)C2)cc1` [Example 16, (2S)-Amino-3-(3-{[3-phenyl-3-(p-tolyloxy)azetidin-1-yl]sulfonyl)phenyl)propanoic acid], the figure is 8.00; as for `N[C@@H](Cc1cccc(S(=O)(=O)N2CC(Oc3ccc(F)c(Cl)c3)(c3ccccc3)C2)c1)C(=O)O` [Example 17, (2S)-Amino-3-(3-{[3-(3-chloro-4-fluorophenoxy)-3-phenylazetidin-1-yl]sulfonyl}phenyl)propanoic acid], 7.64.
The molecule `N#Cc1ccc(OC2(c3ccccc3)CN(S(=O)(=O)c3cccc(C[C@H](N)C(=O)O)c3)C2)cc1` [Example 18, (2S)-Amino-3-(3-{[3-(4-cyanophenoxy)-3-phenylazetidin-1-yl]sulfonyl}phenyl)propanoic acid] had a negative-log IC50 (pIC50) of 7.85.
As for `CCC(=O)c1ccc(OC2(c3ccc(F)cc3)CN(S(=O)(=O)c3cccc(C[C@H](N)C(=O)O)c3)C2)cc1` [Example 19, (2S)-2-Amino-3-{3-[3-(4-fluorophenyl)-3-(4-propanoylphenoxy)azetidin-1-yl]sulfonylphenyl}propanoic acid monotrifluoroacetate], the figure is 7.52; as for `NC(=O)c1ccc(OC2(c3ccccc3)CN(S(=O)(=O)c3cccc(C[C@H](N)C(=O)O)c3)C2)cc1` [Example 20, (2S)-2-Amino-3-{3-[3-(4-carbamoylphenoxy)-3-phenylazetidine-1-sulfonyl]phenyl}propanoic acid monoformate], 8.06.
Then `CN(C)c1ccc(OC2(c3ccc(F)cc3)CN(S(=O)(=O)c3cccc(C[C@H](N)C(=O)O)c3)C2)cc1` [Example 21, (2S)-2-Amino-3-{3-[4-(dimethylamino)phenoxy]-3-(4-fluorophenyl)azetidin-1-yl]sulfonylphenyl}propanoic acid monohydrochloride], with 8.43.
As for `NC(=O)c1ccc(OC2(c3ccc(F)cc3)CN(S(=O)(=O)c3cccc(C[C@H](N)C(=O)O)c3)C2)cc1` [Example 22, (2S)-2-Amino-3-{3-[3-(4-carbamoylphenoxy)-3-(4-fluorophenyl)azetidine-1-sulfonyl]phenyl}propanoic acid monotrifluoroacetate], the figure is 8.32; as for `[2H]c1c([2H])c([2H])c(OC2(c3ccccc3)CN(S(=O)(=O)c3cccc(C[C@H](N)C(=O)O)c3)C2)c([2H])c1[2H]` [Example 24, (2S)-2-Amino-3-(3-{3-phenyl-3-[(^2H5)phenyloxy]azetidin-1-sulfonyl}phenyl)propanoic acid], 7.92; as for `C[C@H](OC(=O)[C@@H](N)Cc1cccc(S(=O)(=O)N2CC(Oc3cccc(F)c3)(c3ccccc3)C2)c1)C(=O)N(C)C` [Example 31, (2S)-1-(Dimethylamino)-1-oxopropan-2-yl (2S)-2-amino-3-{3-[3-(3-fluorophenoxy)-3-phenylazetidin-1-sulfonyl]phenyl}propanoate monotrifluoroacetate], 7.68.
`C[C@@H](OC(=O)[C@@H](N)Cc1cccc(S(=O)(=O)N2CC(Oc3cccc(F)c3)(c3ccccc3)C2)c1)C(=O)N(C)C` [Example 32, (2R)-1-(Dimethylamino)-1-oxopropan-2-yl (2S)-2-amino-3-{3-[3-(3-fluorophenoxy)-3-phenylazetidin-1-sulfonyl]phenyl}propanoate monotrifluoroacetate] had a pIC50 of 7.74.
The molecule `N#Cc1ccc(OC2(c3ccc(F)cc3)CN(S(=O)(=O)c3cccc(C[C@H](N)C(=O)O)c3)C2)cc1` [Example 34, (2S)-2-Amino-3-{3-[3-(4-cyanophenoxy)-3-(4-fluorophenyl)azetidine-1-sulfonyl]phenyl}propanoic acid monohydrochloride] had a pIC50 of 8.48.
In turn, `N[C@@H](Cc1cccc(S(=O)(=O)N2CC(Oc3ccc(Cl)cc3)(c3ccc(F)cc3)C2)c1)C(=O)O` [Example 35, (2S)-2-Amino-3-{3-[3-(4-chlorophenoxy)-3-(4-fluorophenyl)azetidine-1-sulfonyl]phenyl}propanoic acid monohydrochloride] had a pIC50 of 7.62.
